Reference: patent publication US11214803B2, “Modulators of YAP1 expression” (Ionis Pharmaceuticals, Inc., priority 2019, dated 2022)
Strand notation (5' to 3'): a small letter for the sugar, then the base; units joined by * are phosphorothioate-linked, units joined directly phosphodiester-linked; [ ] holds rarer units or linkages, { } end groups; capitals alone tell only the bases. k = constrained ethyl (cEt); [5mC] = 5-methylcytosine; d = 2'-deoxy (DNA)

Test system: Yap1 mRNA
Experiment: Antisense inhibition of human Yap1 in A-431 cells by cEt gapmers, single dose (Example 2, RTS4814)
Format: cell-based
In short: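 A-431 cells (5,000/well) received 2,000 nM oligonucleotide by free uptake for about 48 h. Yap1 mRNA was then quantified by RT-qPCR with primer probe set RTS4814, normalized to RIBOGREEN total RNA, and reported as % of untreated control; asterisked values mark oligos inside the amplicon.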

[1] = Table 32, Yap1 mRNA, percent of untreated control, 3-10-3 cEt gapmers targeting SEQ ID NO.: 1, and 2
[2] = Table 25, Yap1 mRNA as percent of untreated control, 3-10-3 cEt gapmers targeting SEQ ID NO.: 1, and 2
[3] = Table 24, Yap1 mRNA as percent of untreated control, 3-10-3 cEt gapmers targeting SEQ ID NO.: 1, and 2
[4] = Table 33, Yap1 mRNA, percent of untreated control, 3-10-3 cEt gapmers targeting SEQ ID NO.: 1, and 2
[5] = Yap1 mRNA as percent of untreated control, A-431 cells, 3-10-3 cEt gapmers targeting SEQ ID NO.: 1, and 2, Table 30
[6] = Table 21, Yap1 mRNA, percent of untreated control, 3-10-3 cEt gapmers targeting SEQ ID NO.: 1 and 2

1074162 (kA*kG*kG*d[5mC]*dG*dA*dG*d[5mC]*dG*dA*dG*dG*dG*k[5mC]*kT*kA; antisense) [compound 1074162]
YAP1 (% UTC) [1]: 101 % UTC

1074920 (antisense kA*k[5mC]*kT*d[5mC]*dA*dA*dG*dT*dT*dA*d[5mC]*dA*dT*k[5mC]*k[5mC]*k[5mC]) [Compound 1074920]
YAP1 (% UTC) (Table 22, Yap1 mRNA as percent of untreated control, 3-10-3 cEt gapmers, single dose): 68 % UTC

1075755 (kA*k[5mC]*kT*dT*dA*dA*dA*dT*dG*dG*d[5mC]*dA*d[5mC]*kA*kG*kT; antisense) [Compound 1075755]
YAP1 (% UTC) [2]: 73 % UTC

716571 (kG*k[5mC]*kT*dG*dA*dA*dG*d[5mC]*d[5mC]*dG*dA*dG*dT*kT*k[5mC]*kA) [Compound 716571]
YAP1 (% UTC) (Table 7 (gapmers targeting SEQ ID NO: 3 and 4), A-431 cells, free uptake, 2,000 nM, approximately 48 hours, RTS4814): 91 % UTC

1076522 (antisense kG*k[5mC]*kA*d[5mC]*dT*dA*dA*dA*dG*dG*dA*dG*dT*k[5mC]*kA*kT) [Compound 1076522]
YAP1 (% UTC) [3]: 35 % UTC

1075334 (kT*kT*kA*dA*dT*dA*dA*dT*d[5mC]*dT*dA*d[5mC]*d[5mC]*kA*kG*kT; antisense) [Compound 1075334]
YAP1 (% UTC) (Table 20, Yap1 mRNA, percent of untreated control, 3-10-3 cEt gapmers targeting SEQ ID NO.: 1 and 2): 60 % UTC

1076395 (kG*kT*kA*dA*d[5mC]*dT*dA*dA*d[5mC]*d[5mC]*dT*dA*dA*kG*kG*kA; antisense) [Compound 1076395]
YAP1 (% UTC) [2]: 34 % UTC

1075571 (antisense k[5mC]*kA*kA*dA*dT*dA*dG*dA*dT*dA*d[5mC]*dT*dA*kA*kG*k[5mC]) [compound 1075571]
YAP1 (% UTC) [4]: 54 % UTC

1075696 (kT*kT*kA*d[5mC]*dA*dA*dA*dA*dG*dT*dT*dA*d[5mC]*kT*kG*k[5mC]; antisense) [compound 1075696]
YAP1 (% UTC) [5]: 28 % UTC

1074929 (antisense kT*kA*kT*dA*d[5mC]*dA*dA*d[5mC]*dA*dG*dG*d[5mC]*d[5mC]*kT*kG*k[5mC]) [compound 1074929]
YAP1 (% UTC) (Yap1 mRNA as percent of untreated control, A-431 cells, 3-10-3 cEt gapmers targeting SEQ ID NO.: 1, and 2, Table 31): 79 % UTC

1076228 (kA*kT*kT*dA*dA*d[5mC]*d[5mC]*dT*d[5mC]*dA*dG*dT*dG*kA*kG*k[5mC]; antisense) [Compound 1076228]
YAP1 (% UTC) (Table 18, A-431 cells, 5,000 cells per well, free uptake, 2,000 nM modified oligonucleotide, approx. 48 hours, RTS4814, normalized to RIBOGREEN, Yap1 mRNA as percent of untreated control): 69 % UTC

1076307 (kG*kT*kA*dA*dT*dT*dA*d[5mC]*d[5mC]*dT*d[5mC]*dT*dA*kA*kT*k[5mC]; antisense) [compound 1076307]
YAP1 (% UTC) [4]: 38 % UTC

1074983 (antisense k[5mC]*kA*k[5mC]*d[5mC]*dT*dT*dT*dT*dA*dT*dT*dG*d[5mC]*k[5mC]*kA*kG) [Compound 1074983]
YAP1 (% UTC) [6]: 11 % UTC

716569 (k[5mC]*kT*k[5mC]*d[5mC]*dT*dT*dA*dA*d[5mC]*d[5mC]*d[5mC]*dG*dG*kG*kT*kT; antisense) [Compound 716569]
YAP1 (% UTC) (Table 5, A-431 cells, 5,000 cells per well, free uptake, 2,000 nM modified oligonucleotide, approx. 48 hours, RTS4814, normalized to RIBOGREEN, Yap1 mRNA relative to untreated control cells): 115 % UTC

1075882 (kG*kA*kA*dA*dA*dT*d[5mC]*d[5mC]*dT*dG*dA*dT*dT*kA*kA*k[5mC]; antisense) [Compound 1075882]
YAP1 (% UTC) [3]: 73 % UTC

1075888 (antisense kA*k[5mC]*kT*dT*dA*dA*dA*d[5mC]*dT*dT*dG*dA*dG*kG*kG*kA) [compound 1075888]
YAP1 (% UTC) [5]: 22 % UTC

1075666 (antisense kA*kA*kA*dT*dT*dT*dA*dG*dT*dT*dG*dT*dG*k[5mC]*kA*k[5mC]) [compound 1075666]
YAP1 (% UTC) [1]: 106 % UTC

716525 (antisense k[5mC]*kA*k[5mC]*dA*dG*dT*dA*d[5mC]*dT*dG*d[5mC]*dT*dA*k[5mC]*kA*kA) [Compound 716525]
YAP1 (% UTC) (Table 6, A-431 cells, 5,000 cells per well, free uptake, 2,000 nM modified oligonucleotide, approx. 48 hours, RTS4814, normalized to RIBOGREEN, Yap1 mRNA relative to untreated control cells): 64 % UTC

1076498 (kT*kT*kA*d[5mC]*dA*dA*dT*dA*d[5mC]*d[5mC]*dT*dT*dA*kT*kG*kA; antisense) [compound 1076498]
YAP1 (% UTC) [1]: 70 % UTC

1074890 (antisense kG*kA*kA*dG*dT*dT*dT*dA*dG*d[5mC]*d[5mC]*dT*dG*kA*kA*kG) [Compound 1074890]
YAP1 (% UTC) [3]: 58 % UTC

716406 (kA*k[5mC]*kT*d[5mC]*dT*d[5mC]*dA*dT*d[5mC]*dT*d[5mC]*dG*dA*kG*kA*kG; antisense) [Compound 716406]
YAP1 (% UTC) (A-431 cells, 5,000 cells per well, free uptake, 2,000 nM modified oligonucleotide, approx. 48 hours, RTS4814, normalized to RIBOGREEN, Table 4, asterisk (*) = targets amplicon region of primer probe set): 117 % UTC

1076327 (kG*kA*kT*dA*dA*dG*d[5mC]*dA*dA*dG*dG*dT*dT*k[5mC]*kT*k[5mC]; antisense) [Compound 1076327]
YAP1 (% UTC) [6]: 7 % UTC
